Laboratory results reported in patent US10351539B2, “Macrocyclic complexes, their process of preparation and use as PET imaging agents” (INSTITUT NATIONAL DE LA SANTE ET DE LA RECHERCHE MEDICALE …, priority 2014, dated 2019).

What was measured:
[1] = Study 2: biodistribution in healthy New Zealand rabbits (gamma counting of dissected organs); type: in vivo; details: i.v.
Protocol: Biodistribution were determined in 36 healthy New Zealand rabbits (18 males and 18 females, 14 weeks old, 3.5 kg weight, Charles River, France), being randomly divided into two groups: • One group receiving ^99mTc-NTP 15-5: 18±3 MBq/animal for biodistribution; • One group receiving ^64Cu-2: 17±4 MBq/animal for biodistribution.
The compounds were i.v. administered to anesthetized animals (ketamine/xylazine by intramuscular route) in the marginal ear vein.
At selected time points after injection (15 min, 1 h, 3 h, 6 h, 20 h after injection), animals (3 animals/time point/compound) were sacrificed by a lethal i.v. dose of pentobarbital. Organs of interest were dissected, weighed and their radioactivity measured using a gamma counter (Model 1480 Wizard, Perkin Elmer Life Sciences, Boston, USA). After radioactive decay correction, results were expressed for each organ as % injected dose per gram (% ID/g) and averaged per group and per time point.

[2] = Study 1: biodistribution of ^99mTc-NTP 15-5 in healthy rat; type: in vivo; details: 1 h p.i., 0.37 MBq, average from 3 animals ± SD
Protocol: Quantitative biodistribution of radiolabelled compounds was determined in rats: healthy animals as well as rats with primary grade II orthotopic chondrosarcoma at stage Day-30 after induction. The chondrosarcoma model was the Swarm Rat Chondrosarcoma model (SRC) implanted in paratibial location. […] One hour after injection, animals were then sacrificed by CO2 inhalation, dissected and organs of interest removed, weighed and their radioactivity counted using a gamma counter (Model 1480 Wizard, Perkin Elmer Life Sciences, Boston, USA). Organs collected were blood, muscle, knee, kidneys, liver, thoracic ribs, bladder for both healthy and chondrosarcoma bearing rats. For SRC animals, tumour was also sampled. After radioactive decay correction, results were expressed for each organ as % injected dose per gram (% ID/g) and averaged per group.
The following table discloses the biodistribution of ^99mTc-NTP 15-5 in healthy rat, carried out in similar conditions than those of the compounds of the invention (see section C above).

## CC[N+](CC)(CC)CCCN1CC[N]2CC[N]3CC[N]4CC[N](CC1)[Tc]234(=[O])=[O].[Br-] [^99mTc-NTP 15-5, reference compound]
[1]; 15 min
  Uptake ratio Cartilage/Bone: 51.5
  Uptake ratio Cartilage/Muscle: 103
[1]; 15 min after injection
  Articular Cartilage: 1.03 ± 0.4 % ID/g
  Bile: 0.09 ± 0.08 % ID/g
  Blood: 1.09 ± 0.81 % ID/g
  Bone: 0.02 ± 0.01 % ID/g
  Bone Marrow: 0.02 ± 0.02 % ID/g
  Kidney: 0.19 ± 0.03 % ID/g
  Liver: 0.05 ± 0.02 % ID/g
  Lung: 0.04 ± 0.04 % ID/g
  Muscle: 0.01 ± 0.00 % ID/g
  Spleen: 0.03 ± 0.06 % ID/g
  Thyroid: 0.05 ± 0.04 % ID/g
  Urine: 1.40 ± 1.02 % ID/g
[1]; 1 h
  Uptake ratio Cartilage/Bone: 46
[1]; 1 h after injection
  Articular Cartilage: 0.92 ± 0.4 % ID/g
  Bile: 0.09 ± 0.07 % ID/g
  Blood: 0.75 ± 0.09 % ID/g
  Bone: 0.02 ± 0.00 % ID/g
  Bone Marrow: 0.01 ± 0.00 % ID/g
  Kidney: 0.10 ± 0.06 % ID/g
  Liver: 0.06 ± 0.03 % ID/g
  Lung: 0.02 ± 0.00 % ID/g
  Muscle: 0.00 ± 0.00 % ID/g
  Spleen: 0.02 ± 0.01 % ID/g
  Thyroid: 0.06 ± 0.03 % ID/g
  Urine: 4.08 ± 5.75 % ID/g
[1]; 3 h after injection
  Articular Cartilage: 0.35 ± 0.15 % ID/g
  Bile: 0.18 ± 0.24 % ID/g
  Blood: 0.17 ± 0.81 % ID/g
  Bone: 0.00 ± 0.00 % ID/g
  Bone Marrow: 0.00 ± 0.00 % ID/g
  Kidney: 0.09 ± 0.03 % ID/g
  Liver: 0.08 ± 0.02 % ID/g
  Lung: 0.01 ± 0.00 % ID/g
  Muscle: 0.00 ± 0.00 % ID/g
  Spleen: 0.00 ± 0.00 % ID/g
  Thyroid: 0.11 ± 0.01 % ID/g
  Urine: 1.34 ± 0.52 % ID/g
[1]; 6 h after injection
  Articular Cartilage: 0.09 ± 0.03 % ID/g
  Bile: 0.08 ± 0.02 % ID/g
  Blood: 0.03 ± 0.00 % ID/g
  Bone: 0.00 ± 0.00 % ID/g
  Bone Marrow: 0.00 ± 0.00 % ID/g
  Kidney: 0.06 ± 0.01 % ID/g
  Liver: 0.06 ± 0.01 % ID/g
  Lung: 0.00 ± 0.00 % ID/g
  Muscle: 0.00 ± 0.00 % ID/g
  Spleen: 0.00 ± 0.00 % ID/g
  Thyroid: 0.02 ± 0.03 % ID/g
  Urine: 1.61 ± 0.6 % ID/g
[1]; 20 h after injection
  Articular Cartilage: 0.04 ± 0.01 % ID/g
  Bile: 0.03 ± 0.01 % ID/g
  Blood: 0.00 ± 0.00 % ID/g
  Bone: 0.00 ± 0.00 % ID/g
  Bone Marrow: 0.00 ± 0.00 % ID/g
  Kidney: 0.07 ± 0.00 % ID/g
  Liver: 0.03 ± 0.02 % ID/g
  Lung: 0.00 ± 0.00 % ID/g
  Muscle: 0.00 ± 0.00 % ID/g
  Spleen: 0.01 ± 0.00 % ID/g
  Thyroid: 0.00 ± 0.00 % ID/g
  Urine: 0.40 ± 0.01 % ID/g
[2]
  Blood: 0.90 ± 0.08 % ID/g
  Bone (tibia): 0.51 ± 0.29 % ID/g
  Brain: 0.14 ± 0.02 % ID/g
  Kidney: 15.4 ± 12.5 % ID/g
  Liver: 2.02 ± 0.38 % ID/g
  Lung: 1.71 ± 0.97 % ID/g
  Muscle: 0.37 ± 0.24 % ID/g
  Spleen: 0.71 ± 0.25 % ID/g
  Testis: 1.11 ± 0.47 % ID/g
  Tibial plateau: 2.99 ± 1.60 % ID/g
